Experimental data from patent US20160137630A1, “INDUCTION OF GATA2 BY HDAC1 AND HDAC2 INHIBITORS” (ACETYLON PHARMACEUTICALS, INC., priority 2014, published 2016).
“Also recorded” adds a separate entry of the source. Read-outs that look alike come from different tables or passages of the source.

Legend:
[1] = tested on: human bone marrow mononuclear cells; experiment: colony formation assays; conditions: 1 μM
[2] = tested on: histone acetylation (H3K9/14ac, H3K56ac, H3K79ac, H2BK5ac); experiment: histone acetylation levels by western blot; conditions: 1 and 5 μM, FIG. 9B
sickle donor cells = experiment: HbG induction in sickle donor cells; type: cell-based; conditions: peripheral blood mononuclear cells from four different donors; FIG. 11B
From the text: Then, the cells from each donor were differentiated by exposure to either vehicle (control) or Compound 001. RNA samples of HbG were taken from each group of donor cells at days 0, 3, and 5.

[3] = tested on: BFU-E colonies derived from human bone marrow mononuclear cells; experiment: % HbG mRNA in BFU-E colonies; type: cell-based; conditions: FIG. 18A
From the text: Increases in % HbG resulting from HDAC1/2 inhibition were due to increased HbG and decreased HbB (FIGS. 18B, 21D and 21E).

[4] = blood cell counts in rats; type: in vivo; conditions: rat
Procedure: I. A. Rats were dosed once daily by oral gavage for 6 consecutive days at 0 mg/kg, 10 mg/kg, or 30 mg/kg per dose (See FIG. 25A). Dosing days are indicated by a down arrow (FIG. 25A). Peripheral blood was drawn on the indicated days and analyzed for drug level in plasma (PK), complete blood counts (CBC), or isolation of total ribonucleic acid (RNA). […] For each individual rat, white blood cell counts were expressed relative to their predose level (time=day 0). Points are the average of n=4 animals with error bars showing the standard deviation.

Gata2 mRNA = experiment: induction of Gata2 mRNA in erythroid progenitors by HDAC1,2 inhibitors; type: cell-based, human; conditions: erythroid progenitors differentiated 3 days with compound; FIG. 2A-C
From the text: Human bone marrow derived CD34+ cells were expanded for 7 days as described by Sankaran et al., Science, vol. 322(5909), pp. 1839-42 (2008). Cells were then differentiated, in the presence of the indicated compound (i.e., Compounds 001, Compound Y, Compound 2005, Compound 2004, Compound 2003), for 3 days in media supporting erythropoiesis (Hu et al., “Isolation and functional characterization of human erythroblasts at distinct stages: implications for understanding of normal and disordered erythropoiesis in vivo”, Blood, vol. 121(16), pp. 3246-53 ([…])). FIG. 2A, FIG. 2B, and FIG. 2C each represents an experimental series performed on different days and with different donor cells.

[5] = tested on: erythroblasts derived from CD34+ cells isolated from human bone marrow; experiment: QRT-PCR time course of mRNA expression during erythroid differentiation; type: cell-based
From the text: Gata2 mRNA was induced while Gata1 mRNA was unaffected. The culture system was as described by Sankaran et al., “Human fetal hemoglobin expression is regulated by the developmental stage-specific repressor BCL11A”, Science, vol. 322(5909), pp. 1839-42 (2008).
Gata2 mRNA was induced while Gata1 mRNA was unaffected. The culture system as described by Bradner et al., PNAS, vol. 107(28), pp. 12617-22 (2010). […]
The cells were then differentiated by exposure to either vehicle or Compound 001. RNA was measured at days 0, 2, 3, 4, 5, 6, and 8.
Gata1 increased and Gata2 decreased in control cells during the 5 days differentiation period, a result consistent with the known expression pattern of these genes during erythropoiesis (FIG. 1C).

HDAC1 = HDAC1 (Homo sapiens, UniProt Q13547); experiment: in vitro biochemical HDAC inhibition assay
[6] = pharmacokinetics of Compound 001 in cynomolgus monkeys; type: in vivo; conditions: cynomolgus monkey, plasma, read-out: minimum drug exposure for the entire dosing period
Procedure: B. Cynomolgus monkey were dosed once daily by oral gavage for 5 consecutive days at 0 mg/kg, 25 mg/kg, or 75 mg/kg per dose (FIG. 25B). Sampling as described in ‘A’.
C. […] Points are the average of replicate animals, error bars are the standard deviation of replicate animals (FIG. 25C).

Gata2 regulatory regions = experiment: Gata2 ChIP-seq at the Gata2 locus; type: cell-based; conditions: −1.8 kb region
From the text: As above, differentiation profiles of compound treated cells were highly similar to control cells (FIG. 23A). It was observed that Gata2 occupancy at the Gata2 locus is tightly correlated between K562 and primary erythroid progenitors. In both cases, binding was limited to the +9.5, −1.8, −2.8, and −3.9 kb regulatory regions (data not shown).

[7] = tested on: human bone marrow-derived CD34+ cells; experiment: viability of expanded CD34+ cells; type: cell-based; conditions: 2 days of treatment
From the text: This possibility was first tested by measuring the viability of expanded human bone marrow-derived CD34+ cells, composed of primitive and more differentiated hematopoietic progenitors of multiple lineages, following 2 days of treatment with compound.

HbD promoter = experiment: Gata2 binding at the β-like globin gene cluster (ChIP-seq, ChIP-QPCR); type: cell-based
From the text: The tight temporal correlation between Gata2 and HbG activation following HDAC1/2 inhibition argues that Gata2 may affect the beta-globin locus directly. […] In FIG. 8C, the ChIP-seq results in FIG. 8A were validated in a second experimental series using QRT-PCR and two primer sets directed to the delta globin promoter. A primer set at the beta globin promoter was used as a control. […] This region is suspected in playing a role in switching from fetal to adult globin during development, as naturally occurring deletions of this region are associated with elevated fetal hemoglobin in adults (Sankaran V G, Xu J, Byron R, et al. A functional element necessary for fetal hemoglobin silencing. The New England journal of medicine. 2011; 365(9):807-814.).
To investigate this possibility, the β-like globin gene cluster was looked at in the Gata2 ChIP-seq data described above.

HDAC2 = HDAC2 (Homo sapiens, UniProt Q92769)
HDACs 4-9 = experiment: in vitro HDAC inhibition assay, HDACs 4-9; type: biochemical; conditions: concentrations as high as 20 μM; FIG. 20
[8] = 1 μM for 6 days, culture conditions supporting late erythroblasts, FIG. 1C
[9] = 1 μM for 8 days, culture conditions supporting early erythroblasts, FIG. 1B

Sequence of HDAC1 (Q13547 whole entry): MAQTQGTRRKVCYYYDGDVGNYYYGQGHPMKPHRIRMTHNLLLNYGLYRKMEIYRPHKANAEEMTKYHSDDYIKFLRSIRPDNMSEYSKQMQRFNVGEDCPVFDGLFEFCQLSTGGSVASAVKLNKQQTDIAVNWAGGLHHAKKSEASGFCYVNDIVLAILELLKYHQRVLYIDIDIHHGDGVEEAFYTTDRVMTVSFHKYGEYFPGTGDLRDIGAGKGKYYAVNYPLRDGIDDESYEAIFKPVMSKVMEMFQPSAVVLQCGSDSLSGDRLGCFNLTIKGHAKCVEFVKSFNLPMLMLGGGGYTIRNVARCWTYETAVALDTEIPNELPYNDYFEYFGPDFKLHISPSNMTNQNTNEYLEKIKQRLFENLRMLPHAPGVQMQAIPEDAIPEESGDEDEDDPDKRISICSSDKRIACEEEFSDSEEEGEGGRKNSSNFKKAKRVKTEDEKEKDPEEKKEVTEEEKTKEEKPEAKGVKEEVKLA
Sequence of HDAC2 (Q92769 whole entry): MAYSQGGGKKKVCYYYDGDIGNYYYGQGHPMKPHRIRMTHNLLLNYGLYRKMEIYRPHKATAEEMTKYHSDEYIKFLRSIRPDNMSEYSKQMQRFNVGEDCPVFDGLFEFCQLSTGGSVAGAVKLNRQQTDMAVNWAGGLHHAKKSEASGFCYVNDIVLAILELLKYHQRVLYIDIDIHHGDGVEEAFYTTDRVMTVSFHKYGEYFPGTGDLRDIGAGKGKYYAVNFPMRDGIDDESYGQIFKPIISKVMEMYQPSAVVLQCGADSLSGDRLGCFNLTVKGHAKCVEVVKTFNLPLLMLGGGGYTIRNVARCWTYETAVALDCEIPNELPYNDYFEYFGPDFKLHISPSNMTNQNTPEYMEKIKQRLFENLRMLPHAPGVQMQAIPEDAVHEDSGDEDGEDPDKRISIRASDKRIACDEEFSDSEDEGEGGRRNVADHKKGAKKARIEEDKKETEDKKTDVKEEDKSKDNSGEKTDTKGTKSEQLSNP

Nc1ccc(-c2cccs2)cc1NC(=O)c1ccc2nc(N3CCNCC3)ccc2c1 [Compound 001, N-(2-amino-5-(thiophen-2-yl)phenyl)-2-(piperazin-1-yl)quinoline-6-carboxamide]
number of CFU-E colonies [1]: no effect
number of CFU-GM colonies [1]: no effect
number of CFU-MK colonies [1]: significantly suppressed
size and number of BFU-E colonies [1]: no effect
histone acetylation (H3K9/14ac, H3K56, H3K79ac, H2BK5ac) [2]: dose-dependent accumulation of acetylation
HbG (sickle donor cells): induced HbG
% HbG [3]: increased % HbG in a dose-dependent manner
RBC or platelets [4]: no detected affect
time of peak white blood cell suppression after the last dose [4]: 1 days
time to recovery of white blood cell counts to baseline after the last dose [4]: 5 days
white blood cells ([4]; 10 or 30 mg/kg for 6 days): reversible suppression
Gata2 mRNA (Gata2 mRNA): induction of Gata2 mRNA
Gata1 mRNA [5, 8]: unaffected
Gata2 mRNA [5, 8]: induced
Gata1 mRNA [5, 9]: unaffected
Gata2 mRNA [5, 9]: induced
Klf1 mRNA ([5]; QPCR, FIG. 1N): unaffected
decrease in Bcl11a mRNA ([5]; QRT-PCR time course): 2 fold
decrease in Sox6 mRNA ([5]; QRT-PCR time course): 10 fold
increase in Gata2 mRNA ([5]; QRT-PCR time course): 8 fold
Gata2 increase relative to control cells ([5]; day 2): 2 fold
Gata2 increase relative to control cells ([5]; day 5): 5 fold
IC50 (HDAC1; Table 2, read-out: IC50 HDAC1): 4 nM
IC50 (HDAC1; pre-incubation time of 24 hours, FIG. 9A, 17B, read-out: IC50 against HDAC1): 7 nM
concentration at 5 days ([6]; high dose (75 mg/kg once daily oral gavage, 5 days)): ≥ 5000 nM
concentration at 5 days ([6]; low dose (25 mg/kg once daily oral gavage, 5 days)): ≥ 1000 nM
maximum increase in Gata2 binding (peak height) (Gata2 regulatory regions): 3 fold
fold less cytotoxic than Entinostat [7]: 10 fold
IC50 ([7]; Homo sapiens, 48 h, FIG. 19A): 45000 nM
increase in Gata2 binding at the HbD promoter region (HbD promoter; ChIP-seq): 1.8 fold
increase in Gata2 binding at the HbD promoter (HbD promoter; independent ChIP-QPCR experiment): 2 fold
IC50 (HDAC2): 42 nM
inhibition of HDACs 4-9 (HDACs 4-9): negligible inhibitory activity; also recorded: no inhibition
